From patent US20170008921A1, “C-3 NOVEL TRITERPENONE WITH C-28 REVERSE AMIDE DERIVATIVES AS HIV INHIBITORS” (HETERO RESEARCH FOUNDATION, priority 2015, published 2017)

How the values were obtained:
[1] = Cyto-toxicity (MTT assay); assay type: cell-based
[2] = Single dose oral pharmacokinetic study; assay type: in vivo; details: mouse, Mice oral PK @30 mg/kg, plasma, vehicle 10% Solutol+20% PEG; for AUC(0-t): read-out: AUC0-t; for Cmax: read-out: Cmax
Outline: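 Rats or mice dosed orally at 30 mg/kg in 10% Solutol+20% PEG. Acetonitrile precipitation, then LC-MS/MS quantification for PK parameters.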

## CC(C)C1=C2[C@H]3CC[C@@H]4[C@@]5(C)CC[C@H](OC(=O)[C@H]6C[C@@H](C(=O)O)C6(C)C)C(C)(C)[C@@H]5CC[C@@]4(C)[C@]3(C)CC[C@@]2(NC(=O)C(C)(C)NC(=O)c2ccoc2)CC1=O [Example 24, (1R,3S)-3-((((3aR,5aR,5bR,7aR,9S,11aR,11bR,13aS)-3a-(2-(furan-3-carboxamido)-2-methylpropanamido)-1-isopropyl-5a,5b,8,8,11a-pentamethyl-2-oxo-3,3a,4,5,5a,5b,6,7,7a,8,9,10,11,11a,11b,12,13,13a-octadecahydro-2H-cyclopenta[a]chrysen-9-yl)oxy)carbonyl)-2,2-dimethylcyclobutane-1-carboxylic acid]
[1]
  viability at 4 days, 0.01 µM: 69%
  viability at 4 days, 0.1 µM: 21%
  viability at 4 days, 1 µM: 6%
[2]
  AUC(0-t): 428 µg·h/mL
  Cmax: 29600 ng/mL

## CC(C)C1=C2[C@H]3CC[C@@H]4[C@@]5(C)CC[C@H](OC(=O)[C@H]6C[C@@H](C(=O)O)C6(C)C)C(C)(C)[C@@H]5CC[C@@]4(C)[C@]3(C)CC[C@@]2(NC(=O)C(C)(C)NC(=O)c2ccc(C(F)(F)F)cc2)CC1=O [Example 25, (1R,3S)-3-((((3aR,5aR,5bR,7aR,9S,11aR,11bR,13aS)-1-isopropyl-5a,5b,8,8,11a-pentamethyl-3a-(2-methyl-2-(4-(trifluoromethyl)benzamido)propan amido)-2-oxo-3,3a,4,5,5a,5b,6,7,7a,8,9,10,11,11a,11b,12,13,13a-octadecahydro-2H-cyclopenta[a]chrysen-9-yl)oxy)carbonyl)-2,2-dimethylcyclobutane-1-carboxylic acid]
[1]
  viability at 4 days, 0.01 µM: 31%
  viability at 4 days, 0.1 µM: 6%
  viability at 4 days, 1 µM: 2%
[2]
  AUC(0-t): 336 µg·h/mL
  Cmax: 24000 ng/mL

## CC(C)C1=C2[C@H]3CC[C@@H]4[C@@]5(C)CC[C@H](OC(=O)[C@H]6C[C@@H](C(=O)O)C6(C)C)C(C)(C)[C@@H]5CC[C@@]4(C)[C@]3(C)CC[C@@]2(NC(=O)C(C)(C)NC(=O)c2ccc3ccccc3n2)CC1=O [Example 28, (1R,3S)-3-((((3aR,5aR,5bR,7aR,9S,11aR,11bR,13aS)-1-isopropyl-5a,5b,8,8,11a-pentamethyl-3a-(2-methyl-2-(quinoline-2-carboxamido)propanamido)-2-oxo-3,3a,4,5,5a,5b,6,7,7a,8,9,10,11,11a,11b,12,13,13a-octadecahydro-2H-cyclopenta[a]chrysen-9-yl)oxy)carbonyl)-2,2-dimethylcyclobutane-1-carboxylic acid]
[1]
  viability at 4 days, 0.01 µM: 21%
  viability at 4 days, 0.1 µM: 10%
  viability at 4 days, 1 µM: 6%
[2]
  AUC(0-t): 345 µg·h/mL
  Cmax: 16200 ng/mL

## Cc1occc1C(=O)NC(C)(C)C(=O)N[C@@]12CC[C@]3(C)[C@H](CC[C@@H]4[C@@]5(C)CC[C@H](OC(=O)[C@H]6C[C@@H](C(=O)O)C6(C)C)C(C)(C)[C@@H]5CC[C@]43C)C1=C(C(C)C)C(=O)C2 [Example 30, (1R,3S)-3-((((3aR,5aR,5bR,7aR,9S,11aR,11bR,13aS)-1-isopropyl-5a,5b,8,8,11a-pentamethyl-3a-(2-methyl-2-(2-methylfuran-3-carboxamido)propan amido)-2-oxo-3,3a,4,5,5a,5b,6,7,7a,8,9,10,11,11a,11b,12,13,13a-octadecahydro-2H-cyclopenta[a]chrysen-9-yl)oxy)carbonyl)-2,2-dimethylcyclobutane-1-carboxylic acid]
[1]
  viability at 4 days, 0.01 µM: 30%
  viability at 4 days, 0.1 µM: 3%
  viability at 4 days, 1 µM: 2%
[2]
  AUC(0-t): 477 µg·h/mL
  Cmax: 23000 ng/mL

## CC(C)C1=C2[C@H]3CC[C@@H]4[C@@]5(C)CC[C@H](OC(=O)[C@H]6C[C@@H](C(=O)O)C6(C)C)C(C)(C)[C@@H]5CC[C@@]4(C)[C@]3(C)CC[C@@]2(NC(=O)C(C)(C)NC(=O)c2cccnc2N2CCOCC2)CC1=O [Example 31, (1R,3S)-3-((((3aR,5aR,5bR,7aR,9S,11aR,11bR,13aS)-1-isopropyl-5a,5b,8,8,11a-pentamethyl-3a-(2-methyl-2-(2-morpholinonicotinamido)propan amido)-2-oxo-3,3a,4,5,5a,5b,6,7,7a,8,9,10,11,11a,11b,12,13,13a-octadecahydro-2H-cyclopenta[a]chrysen-9-yl)oxy)carbonyl)-2,2-dimethylcyclobutane-1-carboxylic acid]
[1]
  viability at 4 days, 0.001 µM: 81%
  viability at 4 days, 0.003 µM: 86%
  viability at 4 days, 0.01 µM: 54%
[2]
  AUC(0-t): 255 µg·h/mL
  Cmax: 18700 ng/mL

## CC(C)C1=C2[C@H]3CC[C@@H]4[C@@]5(C)CC[C@H](OC(=O)[C@H]6C[C@@H](C(=O)O)C6(C)C)C(C)(C)[C@@H]5CC[C@@]4(C)[C@]3(C)CC[C@@]2(NC(=O)C2(NC(=O)c3ccc(Cl)cc3)CC2)CC1=O [Example 37, (1R,3S)-3-((((3aR,5aR,5bR,7aR,9S,11aR,11bR,13aS)-3a-(1-(4-chlorobenzamido)cyclopropane-1-carboxamido)-1-isopropyl-5a,5b,8,8,11a-pentamethyl-2-oxo-3,3a,4,5,5a,5b,6,7,7a,8,9,10,11,11a,11b,12,13,13a-octadecahydro-2H-cyclopenta[a]chrysen-9-yl)oxy)carbonyl)-2,2-dimethylcyclobutane-1-carboxylic acid]
[1]
  viability at 4 days, 0.01 µM: 26%
  viability at 4 days, 0.1 µM: 4%
  viability at 4 days, 1 µM: 1%
[2]
  AUC(0-t): 874 µg·h/mL
  Cmax: 38800 ng/mL

## Cc1ccc(C(=O)NC2(C(=O)N[C@@]34CC[C@]5(C)[C@H](CC[C@@H]6[C@@]7(C)CC[C@H](OC(=O)[C@H]8C[C@@H](C(=O)O)C8(C)C)C(C)(C)[C@@H]7CC[C@]65C)C3=C(C(C)C)C(=O)C4)CC2)cn1 [Example 38, (1R,3S)-3-((((3aR,5aR,5bR,7aR,9S,11aR,11bR,13aS)-1-isopropyl-5a,5b,8,8,11a-pentamethyl-3a-(1-(6-methylnicotinamido)cyclopropane-1-carbox amido)-2-oxo-3,3a,4,5,5a,5b,6,7,7a,8,9,10,11,11a,11b,12,13,13a-octadecahydro-2H-cyclopenta[a]chrysen-9-yl)oxy)carbonyl)-2,2-dimethylcyclobutane-1-carboxylic acid]
[1]
  viability at 4 days, 0.01 µM: 20%
  viability at 4 days, 0.1 µM: 9%
  viability at 4 days, 1 µM: 2%
[2]
  AUC(0-t): 114 µg·h/mL
  Cmax: 10100 ng/mL

## Cc1ccc(C(=O)NC2(C(=O)N[C@@]34CC[C@]5(C)[C@H](CC[C@@H]6[C@@]7(C)CC[C@H](OC(=O)[C@H]8C[C@@H](C(=O)O)C8(C)C)C(C)(C)[C@@H]7CC[C@]65C)C3=C(C(C)C)C(=O)C4)CC2)cc1 [Example 40, (1R,3S)-3-((((3aR,5aR,5bR,7aR,9S,11aR,11bR,13aS)-1-isopropyl-5a,5b,8,8,11a-pentamethyl-3a-(1-(4-methylbenzamido)cyclopropane-1-carboxamido)-2-oxo-3,3a,4,5,5a,5b,6,7,7a,8,9,10,11,11a,11b,12,13,13a-octadecahydro-2H-cyclopenta[a]chrysen-9-yl)oxy)carbonyl)-2,2-dimethylcyclobutane-1-carboxylic acid]
[1]
  viability at 4 days, 0.01 µM: 26%
  viability at 4 days, 0.1 µM: 2%
  viability at 4 days, 1 µM: 1%
[2]
  AUC(0-t): 343 µg·h/mL
  Cmax: 20300 ng/mL

## CC(C)C1=C2[C@H]3CC[C@@H]4[C@@]5(C)CC[C@H](OC(=O)[C@H]6C[C@@H](C(=O)O)C6(C)C)C(C)(C)[C@@H]5CC[C@@]4(C)[C@]3(C)CC[C@@]2(NC(=O)C2(NC(=O)c3ccc(Cl)cc3)CCC2)CC1=O [Example 42, (1R,3S)-3-((((3aR,5aR,5bR,7aR,9S,11aR,11bR,13aS)-3a-(1-(4-chlorobenzamido)cyclobutane-1-carboxamido)-1-isopropyl-5a,5b,8,8,11a-pentamethyl-2-oxo-3,3a,4,5,5a,5b,6,7,7a,8,9,10,11,11a,11b,12,13,13a-octadecahydro-2H-cyclopenta[a]chrysen-9-yl)oxy)carbonyl)-2,2-dimethylcyclobutane-1-carboxylic acid]
[1]
  viability at 4 days, 0.01 µM: 27%
  viability at 4 days, 0.1 µM: 5%
  viability at 4 days, 1 µM: 4%
[2]
  AUC(0-t): 481 µg·h/mL
  Cmax: 22900 ng/mL

## Cc1ccc(C(=O)NC2(C(=O)N[C@@]34CC[C@]5(C)[C@H](CC[C@@H]6[C@@]7(C)CC[C@H](OC(=O)[C@H]8C[C@@H](C(=O)O)C8(C)C)C(C)(C)[C@@H]7CC[C@]65C)C3=C(C(C)C)C(=O)C4)CCC2)cn1 [Example 43, (1R,3S)-3-((((3aR,5aR,5bR,7aR,9S,11aR,11bR,13aS)-1-isopropyl-5a,5b,8,8,11a-pentamethyl-3a-(1-(6-methylnicotinamido)cyclobutane-1-carboxamido)-2-oxo-3,3a,4,5,5a,5b,6,7,7a,8,9,10,11,11a,11b,12,13,13a-octadecahydro-2H-cyclopenta[a]chrysen-9-yl)oxy)carbonyl)-2,2-dimethylcyclobutane-1-carboxylic acid]
[1]
  viability at 4 days, 0.01 µM: 76%
  viability at 4 days, 0.1 µM: 26%
  viability at 4 days, 1 µM: 3%
[2]
  AUC(0-t): 320 µg·h/mL
  Cmax: 31300 ng/mL

## CC(C)C1=C2[C@H]3CC[C@@H]4[C@@]5(C)CC[C@H](OC(=O)[C@H]6C[C@@H](C(=O)O)C6(C)C)C(C)(C)[C@@H]5CC[C@@]4(C)[C@]3(C)CC[C@@]2(NC(=O)C2(NC(=O)c3ncccn3)CCC2)CC1=O [Example 44, (1R,3S)-3-((((3aR,5aR,5bR,7aR,9S,11aR,11bR,13aS)-1-isopropyl-5a,5b,8,8,11a-pentamethyl-2-oxo-3a-(1-(pyrimidine-2-carboxamido)cyclobutane-1-carboxamido)-3,3a,4,5,5a,5b,6,7,7a,8,9,10,11,11a,11b,12,13,13a-octadecahydro-2H-cyclopenta[a]chrysen-9-yl)oxy)carbonyl)-2,2-dimethylcyclobutane-1-carboxylic acid]
[1]
  viability at 4 days, 0.001 µM: 84%
  viability at 4 days, 0.003 µM: 80%
  viability at 4 days, 0.01 µM: 58%
[2]
  AUC(0-t): 154 µg·h/mL
  Cmax: 19800 ng/mL
